Source: paper PMC3253716 (Journal of Enzyme Inhibition and Medicinal Chemistry, 2010)
“Also recorded” adds a separate entry of the source.

Key:
[1] = target: T1, recombinant mouse acetylcholinesterase (rMAChE) (Mus musculus, UniProt P21836); assay: Colorimetric; assay type: biochemical; details: tested at 50 µM
T1 sequence (P21836 with tags, fused parts or gaps limits assumed): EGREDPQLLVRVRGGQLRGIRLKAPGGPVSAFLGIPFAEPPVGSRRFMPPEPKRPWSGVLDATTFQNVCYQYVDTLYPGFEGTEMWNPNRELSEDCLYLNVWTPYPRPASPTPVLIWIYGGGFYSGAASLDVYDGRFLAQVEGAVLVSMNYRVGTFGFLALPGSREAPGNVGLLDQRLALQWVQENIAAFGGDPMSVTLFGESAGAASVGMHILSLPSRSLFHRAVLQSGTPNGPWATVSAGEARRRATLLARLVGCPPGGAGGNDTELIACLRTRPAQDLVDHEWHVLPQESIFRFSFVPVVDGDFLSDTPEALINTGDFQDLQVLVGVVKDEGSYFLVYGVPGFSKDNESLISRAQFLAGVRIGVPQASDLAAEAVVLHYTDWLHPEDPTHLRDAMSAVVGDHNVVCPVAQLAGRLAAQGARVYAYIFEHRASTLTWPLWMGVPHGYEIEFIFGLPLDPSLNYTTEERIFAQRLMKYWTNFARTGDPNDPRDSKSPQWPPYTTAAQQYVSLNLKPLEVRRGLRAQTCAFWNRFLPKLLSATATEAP

[2] = target: electric eel acetylcholinesterase (EEAChE) (Electrophorus electricus, UniProt O42275); assay: Colorimetric; assay type: biochemical; details: tested at 50 µM
Chain of electric eel acetylcholinesterase (EEAChE) (O42275 24-633): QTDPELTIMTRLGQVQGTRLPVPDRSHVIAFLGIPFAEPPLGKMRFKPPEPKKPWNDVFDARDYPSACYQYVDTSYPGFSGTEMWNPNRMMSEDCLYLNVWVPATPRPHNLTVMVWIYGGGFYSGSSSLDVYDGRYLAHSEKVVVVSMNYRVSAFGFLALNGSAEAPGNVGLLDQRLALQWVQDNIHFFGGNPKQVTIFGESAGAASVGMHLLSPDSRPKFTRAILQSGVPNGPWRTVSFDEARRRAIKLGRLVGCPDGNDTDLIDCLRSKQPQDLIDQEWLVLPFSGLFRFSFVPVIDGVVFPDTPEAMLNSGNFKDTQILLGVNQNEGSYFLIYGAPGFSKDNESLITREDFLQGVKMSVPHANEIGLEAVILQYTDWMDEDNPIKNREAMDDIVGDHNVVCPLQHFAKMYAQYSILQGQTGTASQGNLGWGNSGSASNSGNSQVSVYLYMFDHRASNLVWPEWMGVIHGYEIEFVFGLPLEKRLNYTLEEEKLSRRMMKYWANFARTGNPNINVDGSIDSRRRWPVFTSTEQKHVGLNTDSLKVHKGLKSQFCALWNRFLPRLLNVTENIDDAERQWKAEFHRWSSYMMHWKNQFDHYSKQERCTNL

EEAChE [3] = target: T2, EEAChE (Electrophorus electricus, UniProt O42275); details: read-out: IC50 against EEAChE; competitive inhibition; cited from earlier work
T2 sequence (O42275 24-633): as above

EEAChE [4] = target: T2, EEAChE; details: Lineweaver–Burk plot

9-[2(or 4)-[[[-[-N-Propynylsulfonamide]-4(or 2)-sulfophenyl]-2,3,6,7,12,13,16,17–octahydro-1H, 5H, 11H, 15H-xantheno[2,3,4-ij:5,6,7i′j′]-diquinolizium-18-inner salt [Compound 7]
Inhibition of rMAChE (in words) [1]: reversibly inactivate | Inhibition of rMAChE (in words) ([1]; listed as Texas Red): inhibited | Inhibition of EEAChE (in words) [2]: reversibly inactivate | Inhibition of EEAChE (in words) ([2]; listed as Texas Red): inhibited

C#CCNS(=O)(=O)c1cccc2c(N(C)C)cccc12 [Compound 1, 5-(Dimethylamino)-N-(-2-propynyl)-1-naphthalenesulfonamide]
Inhibition of rMAChE (in words) ([1]; listed as dansyl): not inhibitors; also recorded: inactive | Inhibition of EEAChE (in words) ([2]; listed as dansyl): not inhibitors; also recorded: inactive

C#CCNS(=O)(=O)c1ccc2ccc3cccc4ccc1c2c34 [Compound 2, 1-N-(-2-Propynyl)-pyrenesulfonamide]
Inhibition of rMAChE (in words) [1]: inactive | Inhibition of EEAChE (in words) [2]: inactive

C#CCNS(=O)(=O)c1ccc(N=Nc2ccc(N(C)C)cc2)cc1 [Compound 3, 4-(4-Dimethylamino-phenylazo)-N-prop-2-ynyl benzenosulfonamide]
Inhibition of rMAChE (in words) ([1]; listed as dabsyl): not inhibitors; also recorded: inactive | Inhibition of EEAChE (in words) ([2]; listed as dabsyl): not inhibitors; also recorded: inactive

C#CCNC(=O)c1cc2ccc(N(CC)CC)cc2oc1=O [Compound 4, 2H-1-Benzopyran-7-N-diethyl-2-oxo-3-propynylcarboxylamide]
Inhibition of rMAChE (in words) [1]: inhibited | Inhibition of rMAChE (in words) ([1]; listed as diethylaminocoumarin): some inhibitory ability | Inhibition of EEAChE (in words) [2]: not an inhibitor

C#CCNC(=O)c1cc2ccc(OC)cc2oc1=O [Compound 5, 2H-1-Benzopyran-7-methoxy-2-oxo-3-N-propynylcarboxylamide]
Inhibition of rMAChE (in words) ([1]; listed as methoxycoumarin): not inhibitors; also recorded: inactive | Inhibition of EEAChE (in words) ([2]; listed as methoxycoumarin): not inhibitors; also recorded: inactive

c1cc2ccc3cccc4ccc(c1)c2c34 [pyrene]
IC50 (EEAChE [3]): 5.22 µM

Xanthylium, 9-[-2-sulfophenyl]-3,6-bis(diethylamino)-4-sulfonamide [Compound 6]
Inhibition of rMAChE (in words) [1]: reversibly inactivate | Inhibition of rMAChE (in words) ([1]; listed as Lissamine): inhibited | Type of inhibition (EEAChE [4]): mixed-type competitive and noncompetitive inhibition | Inhibition of EEAChE (in words) [2]: reversibly inactivate | Inhibition of EEAChE (in words) ([2]; listed as Lissamine): inhibited
